From patent publication US6121257A, “Sulfamate containing macrocyclic immunomodulators” (Abbott Laboratories, priority 1999, dated 2000) come the findings set out here.

One may read the IC50 as the concentration at which inhibition is half-maximal. Lower therefore signals inhibition by little substance.

The test system of this assay is human mixed lymphocyte reaction (MLR). Put plainly: human mixed lymphocyte reaction (MLR) assay. The format is cell-based. The note with it: Table 1. As for the experimental part: The immunosuppressant activity of the compounds of the present invention was determined using the human mixed lymphocyte reaction (MLR) assay described by Kino, T. et al., in Transplantation Proceedings, XIX(5):36-39, Suppl. 6 (1987), hereby incorporated by reference.

On to `CC[C@@H]1/C=C(\C)C[C@H](C)C[C@H](OC)[C@H]2O[C@@](O)(C(=O)C(=O)N3CCCC[C@H]3C(=O)O[C@H](/C(C)=C/[C@@H]3CC[C@@H](OS(=O)(=O)NC(=O)OC)[C@H](OC)C3)[C@H](C)[C@@H](O)CC1=O)[C@H](C)C[C@@H]2OC` [Example 1, (1R,9S,12S,13R,14S,17R,21S,23S,24R,25S,27R)-17-ethyl-1,14-dihydroxy-23,25-dimethoxy-12-{(E)-2-[(1R,3R,4R)-3-methoxy-4-({[(methoxycarbonyl)amino]sulfonyl)oxy)cyclohexyl]-1-methylethenyl}-13,19,21,27-tetramethyl-2,3,10,16-tetraoxo-11,28-dioxa-4-azatricyclo[22.3.1.0^4,9]octacos-18-ene], for which the IC50 turned out to be 0.73 nM.
For `CCOC(=O)NS(=O)(=O)O[C@@H]1CC[C@@H](/C=C(\C)[C@H]2OC(=O)[C@@H]3CCCCN3C(=O)C(=O)[C@]3(O)O[C@H]([C@@H](OC)C[C@@H](C)C/C(C)=C/[C@@H](CC)C(=O)C[C@H](O)[C@H]2C)[C@@H](OC)C[C@H]3C)C[C@H]1OC` [Example 2, (1R,9S12S,13R,14S,17R,21S,23S,24R,25S,27R)-12-{(E)-2-[(1R,3R,4R)-4-({[(ethoxycarbonyl)amino]sulfonyl}oxy)-3-methoxycyclohexyl]-1-methylethenyl}-17-ethyl-1,14-dihydroxy-23,25-dimethoxy-13,19,21,27-tetramethyl-2,3,10,16-tetraoxo-11,28-dioxa-4-azatricyclo[22.3.1.0^4,9]octacos-18-ene] the value was 0.57 nM; for `CC[C@@H]1/C=C(\C)C[C@H](C)C[C@H](OC)[C@H]2O[C@@](O)(C(=O)C(=O)N3CCCC[C@H]3C(=O)O[C@H](/C(C)=C/[C@@H]3CC[C@@H](OS(=O)(=O)NC(=O)OCc4ccccc4)[C@H](OC)C3)[C@H](C)[C@@H](O)CC1=O)[C@H](C)C[C@@H]2OC` [Example 3, (1R,9S,12S,13R,14S,17R,21 S,23S,24R,25S,27R)-12-((E)-2-{(1R,3R,4R)-4-[({[(benzyloxy)carbonyl]amino]sulfonyl)oxy]-3-methoxycyclohexyl}-1-methylethenyl)-17-ethyl-1,14-dihydroxy-23,25-dimethoxy-13,19,21,27-tetramethyl-2,3,10,16-tetraoxo-11,28-dioxa-4-azatricyclo[22.3.1.0^4,9]octacos-18-ene], 3.96 nM.
For `CC[C@@H]1/C=C(\C)C[C@H](C)C[C@H](OC)[C@H]2O[C@@](O)(C(=O)C(=O)N3CCCC[C@H]3C(=O)O[C@H](/C(C)=C/[C@@H]3CC[C@@H](OS(=O)(=O)NC(=O)OC(C)(C)C)[C@H](OC)C3)[C@H](C)[C@@H](O)CC1=O)[C@H](C)C[C@@H]2OC` [Example 4, (1R,9S,12S,13R,14S,17R,21S,23S,24R,25S,27R)-12-{(E)-2-[(1R,3R,4R)-4-({[(tert-butoxycarbonyl)amino]sulfonyl}oxy)-3-methoxycyclohexyl]-1-methylethenyl}-17-ethyl-1,14-dihydroxy-23,25-dimethoxy-13,19,21,27-tetramethyl-2,3,10,16-tetraoxo-11,28-dioxa-4-azatricyclo[22.3.1.0^4,9]octacos-18-ene] the value was 0.99 nM; for `CC[C@@H]1/C=C(\C)C[C@H](C)C[C@H](OC)[C@H]2O[C@@](O)(C(=O)C(=O)N3CCCC[C@H]3C(=O)O[C@H](/C(C)=C/[C@@H]3CC[C@@H](OS(=O)(=O)NC(=O)OC4CCCC4)[C@H](OC)C3)[C@H](C)[C@@H](O)CC1=O)[C@H](C)C[C@@H]2OC` [Example 5, (1R,9S,12S,13R,14S,17R,21S,23S,24R,25S,27R)-12-((E)-2-{(1R,3R.4R)-4-[({[(cyclopentyloxy)carbonyl]amino}sulfonyl)oxy]-3-methoxycyclohexyl}-1-methylethenyl)-17-ethyl-1,14-dihydroxy-23,25-dimethoxy-13,19,21,27-tetramethyl-2,3,10,16-tetraoxo-11,28-dioxa-4-azatricyclo[22.3.1.0^4,9]octacos-18-ene], 26.1 nM; for `CC[C@@H]1/C=C(\C)C[C@H](C)C[C@H](OC)[C@H]2O[C@@](O)(C(=O)C(=O)N3CCCC[C@H]3C(=O)O[C@H](/C(C)=C/[C@@H]3CC[C@@H](OS(=O)(=O)NC(=O)OC4CCCCC4)[C@H](OC)C3)[C@H](C)[C@@H](O)CC1=O)[C@H](C)C[C@@H]2OC` [Example 6, (1R,9S,12S,13R,14S,17R,21S,23S,24R,25S,27R)-12-((E)-2-{(1R,3R,4R)-4-[({[(cyclohexyloxy)carbonyl]amino}sulfonyl)oxy]-3-methoxycyclohexyl}-1-methylethenyl)-17-ethyl-1,14-dihydroxy-23,25-dimethoxy-13,19,21,27-tetramethyl-2,3,10,16-tetraoxo-11,28-dioxa-4-azatricyclo[22.3.1.0^4,9]octacos-18-ene], 4.7 nM.
The molecule `CC[C@@H]1/C=C(\C)C[C@H](C)C[C@H](OC)[C@H]2O[C@@](O)(C(=O)C(=O)N3CCCC[C@H]3C(=O)O[C@H](/C(C)=C/[C@@H]3CC[C@@H](OS(=O)(=O)NC(=O)OC4CCCCCC4)[C@H](OC)C3)[C@H](C)[C@@H](O)CC1=O)[C@H](C)C[C@@H]2OC` [Example 7, (1R,9S,12S,13R,14S,17R,21S,23S,24R,25S,27R)-12-((E)-2-{(1R,3R,4R)-4-[({[(cycloheptyloxy)carbonyl]amino}sulfonyl)oxy]-3-methoxycyclohexyl}-1-methylethenyl)-17-ethyl-1,14-dihydroxy-23,25-dimethoxy-13,19,21,27-tetramethyl-2,3,10,16-tetraoxo-11,28-dioxa-4-azatricyclo[22.3.1.0^4,9]octacos-18-ene] displayed an IC50 of 9.63 nM.
`CC[C@@H]1/C=C(\C)C[C@H](C)C[C@H](OC)[C@H]2O[C@@](O)(C(=O)C(=O)N3CCCC[C@H]3C(=O)O[C@H](/C(C)=C/[C@@H]3CC[C@@H](OS(=O)(=O)NC(=O)OCc4ccncc4)[C@H](OC)C3)[C@H](C)[C@@H](O)CC1=O)[C@H](C)C[C@@H]2OC` [Example 8, (1R,9S,12S,13R,14S,17R,21S,23S,24R,25S,27R)-17-ethyl-1,14-dihydroxy-23,25-dimethoxy-12-((E)-2-{(1R,3R,4R)-3-methoxy-4-[({[(4-pyridinylmethoxy)carbonyl]amino}sulfonyl)oxy]cycyclohexyl}-1-methylethenyl)-13,19,21,27-tetramethyl-2,3,10,16-tetraoxo-11,28-dioxa-4-azatricyclo[22.3.1.0^4,9]octacos-18-ene] had an IC50 of 0.1 nM.
`CC[C@@H]1/C=C(\C)C[C@H](C)C[C@H](OC)[C@H]2O[C@@](O)(C(=O)C(=O)N3CCCC[C@H]3C(=O)O[C@H](/C(C)=C/[C@@H]3CC[C@@H](OS(=O)(=O)NC(=O)OCc4cccnc4)[C@H](OC)C3)[C@H](C)[C@@H](O)CC1=O)[C@H](C)C[C@@H]2OC` [Example 9, (1R,9S,12S,13R,14S,17R,21S,23S,24R,25S,27R)-17-ethyl-1,14-dihydroxy-23,25-dimethoxy-12-((E)-2-{(1R,3R,4R)-3-methoxy-4-[({[(3-pyridinylmethoxy)carbonyl]amino}sulfonyl)oxy]cyclohexyl}-1-methylethenyl)-13,19,21,27-tetramethyl-2,3,10,16-tetraoxo-11,28-dioxa-4-azatricyclo[22.3.1.0^4,9]octacos-18-ene] displayed an IC50 of 4.77 nM.
